“Also recorded” adds a separate entry of the source. Read-outs that look alike come from different tables or passages of the source.
Tests used:
[1] = biological target: Human DPP4 (Homo sapiens (Human), UniProt P27487); test: DPP4 activity assay (Sigma-Aldrich MAK088 kit); assay type: biochemical; conditions: Table 4; read-out: DPPIV IC50
Experimental: DPP4 activity assay. Human DPP4 activity assay data were obtained using a DPP4 Activity Assay Kit (Sigma-Aldrich, MAK088) according to the manufacturer's instructions. Briefly, 10 μL of DPP4 Assay Buffer was transferred per well in low volume 384-well plates before transferring 10 μL of diluted compound dissolved in DPP4 assay buffer. 5 μL of Master Reaction Mix containing a fluorescent substrate that becomes fluorescent upon cleavage by the enzyme. Fluorescence intensity measurements were recorded at 1-minute time intervals over the course of 20 minutes using an Envision Multimode Plate Reader (PerkinElmer).

[2] = test system: Primary human AEC2s; test: AEC2 proliferation assay (Ki67 high content imaging); assay type: cell-based
Experimental: To identify small molecules capable of proliferating AEC2s, as disclosed herein, we first established a culture system with primary human small airway epithelial cells (SAECs) from a commercial source.
AEC2 proliferation assay. Primary human AEC2s were plated at a density of 1,500 cells per well in black 384-well plates (Greiner) coated with 10 ug/mL. Laminin (Life Technologies) in 50 μL of Small Airway Epithelial Cell Growth Medium (Lonza) without EGF, retinoic acid and with 5% BPE. 100 nL of compound dissolved in DMSO was then delivered using a Biomek FX instrument (Beckman Coulter) fitted with a pintool head (V&P Scientific).

[3] = test system: bleomycin-induced lung fibrosis; test: Bleomycin-induced lung fibrosis model; assay type: in vivo, mouse; conditions: 0.5 mg/kg IT once every four days, versus vehicle
Experimental: Experimental Methods of Bleomycin Model Bleomycin (Hospira) was used to induce lung fibrosis in mice. Body weight matched (24 gram˜28 gram) male C57BL/6J mice at 10-12 weeks of age were selected to use in bleomycin model. For orally delivered DPP4 inhibitors. compounds were dissolved in PBS resulting in clear solution. […] For intratracheally delivered DPP4 inhibitors, compounds were dissolved in PBS resulting in clear solution. […] 0.5 U/kg Bleomycin or PBS in sham group was intratracheally injection into mice lung at day 0. […] All animals were sacrificed at day 20 after bleomycin injection. Bronchoalveolar lavage fluid (BALF) was retrieved using standard method. 1 ml 4% formalin was used to inflate the lung, which was subsequently fixed in 4% formalin for 24 hours and preserved in 70% EtOH until histological process. For readouts, body weight was measured every day; total protein content in BALF was quantified using BCA assay; pulmonary fibrosis was assessed using Masson's trichrome staining.

[4] = IT pharmacokinetics of dutogliptin (1) and dutogliptin boronate (15); assay type: in vivo, mouse; conditions: for Plasma concentration of dutogliptin, individual animals / Bronchoalveolar lavage fluids concentration of dutogliptin, individual animals / Lung concentration of dutogliptin, individual animals: mice, 1.8 mg/kg IT dutogliptin boronate (cpd 15)
Experimental: Like other […]. Dutogliptin (1) dosed IT in mice with PBS solution quickly cleared in lung (<24h. Table 8A). […] The parent drug dutogliptin was detected in plasma and lung. […] The drug was retained in the lung for over 48 h. The data clearly illustrated the unexpected lung retention ability of boronate prodrug 15.

[5] = test system: alveolar epithelium; conditions: Stone et al., Diab et al.; cited from earlier work
[6] = test system: human pulmonary fibroblasts; test: Pulmonary fibroblast counter-assay; assay type: cell-based; conditions: at concentrations that promoted AEC2 proliferation
[7] = Homo sapiens, Table 4, promotion of AEC2 proliferation, read-out: AEC2 EC50
[8] = Homo sapiens, Table 5, read-out: AEC2 proliferation

Sequence of Human DPP4 (P27487 whole entry): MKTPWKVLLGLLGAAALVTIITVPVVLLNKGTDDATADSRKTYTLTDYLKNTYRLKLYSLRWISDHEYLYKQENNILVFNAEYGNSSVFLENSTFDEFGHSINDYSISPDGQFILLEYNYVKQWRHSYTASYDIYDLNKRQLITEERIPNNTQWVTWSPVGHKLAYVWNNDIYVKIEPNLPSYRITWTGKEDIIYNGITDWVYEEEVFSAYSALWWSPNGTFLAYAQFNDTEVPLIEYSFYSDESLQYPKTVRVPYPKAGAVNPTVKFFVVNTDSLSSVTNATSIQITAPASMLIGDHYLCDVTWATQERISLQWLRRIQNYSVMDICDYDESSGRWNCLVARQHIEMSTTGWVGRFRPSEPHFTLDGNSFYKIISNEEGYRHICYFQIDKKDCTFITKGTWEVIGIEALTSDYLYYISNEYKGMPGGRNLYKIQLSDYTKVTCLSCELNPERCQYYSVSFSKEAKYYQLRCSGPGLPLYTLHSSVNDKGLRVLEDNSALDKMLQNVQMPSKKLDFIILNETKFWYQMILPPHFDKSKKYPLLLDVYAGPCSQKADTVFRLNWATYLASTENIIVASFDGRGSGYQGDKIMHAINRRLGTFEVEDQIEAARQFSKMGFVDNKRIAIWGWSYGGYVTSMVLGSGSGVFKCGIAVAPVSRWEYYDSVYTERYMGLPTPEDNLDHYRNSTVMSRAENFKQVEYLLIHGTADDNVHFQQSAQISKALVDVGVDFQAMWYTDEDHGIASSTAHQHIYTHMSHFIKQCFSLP

## CCOC(=O)C12CCC(NCC(=O)N3C[C@@H](F)C[C@H]3C#N)(CC1)CC2 [Cpd 2, ethyl 4-((2-((2S,4S)-2-cyano-4-fluoropyrrolidin-1-yl)-2-oxoethyl)amino)bicyclo[2.2.2]octane-1-carboxylate]
[1]
  IC50: 0.0022 µM

## N#C[C@@H]1CCCN1C(=O)CNC12CC3C[C@@H](C1)C[C@@](O)(C3)C2 [Cpd 3, (2S)-1-(((1S,3R,5S)-3-hydroxyadamantan-1-yl)glycyl)pyrrolidine-2-carbonitrile]
[2]; [7]
  EC50: 0.16 µM
[2]; [8]
  EC50: 0.16 µM

## Cn1c(=O)cc(N2CCC[C@@H](N)C2)n(Cc2ccccc2C#N)c1=O [Cpd 7, (R)-2-((6-(3-aminopiperidin-1-yl)-3-methyl-2,4-dioxo-3,4-dihydropyrimidin-1(2H)-yl)methyl)benzonitrile]
[2]; [7]
  EC50: 0.11 µM
[2]; [8]
  EC50: 0.11 µM

## CS(=O)(=O)n1cc2c(n1)CN([C@H]1CO[C@H](c3cc(F)ccc3F)[C@@H](N)C1)C2 [Cpd 9, (2R,3S,5R)-2-(2,5-difluorophenyl)-5-(2-(methylsulfonyl)-2,6-dihydropyrrolo[3,4-c]pyrazol-5(4H)-yl)tetrahydro-2H-pyran-3-amine]
[2]; [7]
  EC50: 0.043 µM
[2]; [8]
  EC50: 0.043 µM

## Cn1c(=O)cc(N2CCC[C@@H](N)C2)n(Cc2cc(F)ccc2C#N)c1=O [Cpd 10, (R)-2-((6-(3-aminopiperidin-1-yl)-3-methyl-2,4-dioxo-3,4-dihydropyrimidin-1(2H)-yl)methyl)-4-fluorobenzonitrile]
[2]; [7]
  EC50: 0.067 µM
[2]; [8]
  EC50: 0.067 µM

## N[C@@H](CC(=O)N1CCc2c(nc(C(F)(F)F)nc2C(F)(F)F)C1)CN1CC(F)(F)CCC1=O [Cpd 11, (S)-1-(2-amino-4-(2,4-bis(trifluoromethyl)-5,8-dihydropyrido[3,4-d]pyrimidin-7(6H)-yl)-4-oxobutyl)-5,5-difluoropiperidin-2-one]
[2]; [7]
  EC50: 0.22 µM
[2]; [8]
  EC50: 0.22 µM

## Cc1cc2ncc(C(=O)NCC(C)(C)NCC(=O)N3CCC[C@H]3C#N)cn2n1 [Cpd 12, (S)-N-(2-((2-(2-cyanopyrrolidin-1-yl)-2-oxoethyl)amino)-2-methylpropyl)-2-methylpyrazolo[1,5-a]pyrimidine-6-carboxamide]
[2]; [7]
  EC50: 0.11 µM
[2]; [8]
  EC50: 0.11 µM

## CC1(C)[C@@H]2C[C@H]3OB([C@@H]4CCCN4C(=O)CN[C@@H]4CCNC4)O[C@@]3(C)[C@H]1C2 [Cpd 15, 2-(((R)-pyrrolidin-3-yl)amino)-1-((R)-2-((3aS,4S,6S,7aR)-3a,5,5-trimethylhexahydro-4,6-methanobenzo[d][1,3,2]dioxaborol-2-yl)pyrrolidin-1-yl)ethan-1-one]
[3]
  BALF protein level: reduced
[4]; IT dosing, data not shown
  plasma and lung levels of the boronate itself: very low and absent after 0.25 h
[4]; 7.00 h
  Plasma concentration of dutogliptin, individual animals: BQL
[4]; 24.0 h
  Plasma concentration of dutogliptin, individual animals: BQL
[4]; 48.0 h
  Bronchoalveolar lavage fluids concentration of dutogliptin, individual animals: BQL
  Lung concentration of dutogliptin, individual animals: BQL
  Plasma concentration of dutogliptin, individual animals: BQL
[4]; 96.0 h
  Bronchoalveolar lavage fluids concentration of dutogliptin, individual animals: BQL
  Lung concentration of dutogliptin, individual animals: BQL
  Plasma concentration of dutogliptin, individual animals: BQL
[4]; 168 h
  Bronchoalveolar lavage fluids concentration of dutogliptin, individual animals: BQL
  Lung concentration of dutogliptin, individual animals: BQL
  Plasma concentration of dutogliptin, individual animals: BQL
[4]; mouse IT pharmacokinetic study
  conversion of the boronate to the active drug: convert to the active drug dutogliptin in both plasma and lung
[4]; mouse, in vivo
  lung exposure of dutogliptin after IT boronate versus IT dutogliptin itself: significantly higher; also recorded: much higher

## N#C[C@@H]1C[C@H](F)CN1C(=O)CNC12CCC(C(=O)O)(CC1)CC2 [Cpd 16, 4-((2-((2S,4S)-2-cyano-4-fluoropyrrolidin-1-yl)-2-oxoethyl)amino)bicyclo[2.2.2]octane-1-carboxylic acid]
[1]
  IC50: 0.0012 µM

## COC(=O)C12CCC(NCC(=O)N3C[C@@H](F)C[C@H]3C#N)(CC1)CC2 [Cpd 17, methyl 4-((2-((2S,4S)-2-cyano-4-fluoropyrrolidin-1-yl)-2-oxoethyl)amino)bicyclo[2.2.2]octane-1-carboxylate]
[1]
  IC50: 0.001 µM

## N#C[C@@H]1CCCN1C(=O)CNC12CC3C[C@H](CC(N)(C3)C1)C2 [Cpd 18, (2S)-1-(((1S,3R,5R)-3-aminoadamantan-1-yl)glycyl)pyrrolidine-2-carbonitrile]
[1]
  IC50: 0.038 µM

## CC#CCn1c(N2CCC[C@@H](N)C2)cc(=O)n(Cc2cccc(C(=O)OC)c2)c1=O [Cpd 25, methyl (R)-3-((4-(3-aminopiperidin-1-yl)-3-(but-2-yn-1-yl)-2,6-dioxo-3,6-dihydropyrimidin-1(2H)-yl)methyl)benzoate]
[1]
  IC50: 0.006 µM

## N[C@@H](CC(=O)N1CCn2c(C(F)(F)F)nc(C(=O)O)c2C1)Cc1cc(F)c(F)cc1F [Cpd 26, (R)-7-(3-amino-4-(2,4,5-trifluorophenyl)butanoyl)-3-(trifluoromethyl)-5,6,7,8-tetrahydroimidazo[1,5-a]pyrazine-1-carboxylic acid]
[1]
  IC50: 0.0008 µM

## CCCCCCCCc1ccc(CCC(N)(CO)CO)cc1 [FTY-720]
[5]
  apoptosis and inflammatory cytokine release in alveolar epithelium: inhibited apoptosis and inflammatory cytokine release
[2]
  AEC2 proliferation, result in words: active

## N#Cc1ccc(NCCNCC(=O)N2CCC[C@H]2C#N)nc1 [NVP-728]
[2]; FIG. 1B, 1C, read-out: EC50, AEC2 proliferation (ReFRAME screen hits)
  EC50: ~0.5 µM
[6]
  total number, percent Ki67 positivity, or myofibroblast differentiation status of pulmonary fibroblasts: did not increase

## CC(C)Oc1ccc(-c2nc(-c3cccc4c3CC[C@@H]4NCCO)no2)cc1C#N [Ozanimod]
[2]
  AEC2 proliferation, result in words: active

## FC(F)(F)c1cccc(-c2noc(-c3cc(-c4ccccc4)c(C(F)(F)F)s3)n2)c1 [SEW-2871]
[5]
  apoptosis and inflammatory cytokine release in alveolar epithelium: inhibited apoptosis and inflammatory cytokine release
[2]
  AEC2 proliferation, result in words: active

## CCc1cc(/C(C)=N/OCc2ccc(C3CCCCC3)c(C(F)(F)F)c2)ccc1CN1CC(C(=O)O)C1 [siponimod]
[2]; Homo sapiens, FIG. 1B, 1C, read-out: EC50, AEC2 proliferation (ReFRAME screen hits)
  EC50: ~0.1 µM
[6]
  total number, percent Ki67 positivity, or myofibroblast differentiation status of pulmonary fibroblasts: did not increase
